How the values were obtained:
[1] = target: T1, Serine/threonine-protein kinase pim-3 (Homo sapiens, UniProt Q86V86); assay: Inhibition of PIM3 (unknown origin)
[2] = target: T2, Serine/threonine-protein kinase pim-2 (Homo sapiens, UniProt Q9P1W9)
[3] = target: T3, Serine/threonine-protein kinase pim-1 (Homo sapiens, UniProt P11309); assay: Inhibition of PIM1 (unknown origin) using NH2-AGAGRSRHSSYPAGT-OH as substrate by Kinase-Glo assay
[4] = target: T3, Serine/threonine-protein kinase pim-1
[5] = target: T2, Serine/threonine-protein kinase pim-2; assay: Inhibition of PIM2 (unknown origin) using Biotin-AGAGRSRHSSYPAGT-OH as substrate after 2 hrs by AlphaScreen assay
[6] = target: T1, Serine/threonine-protein kinase pim-3; assay: Inhibition of PIM3 (unknown origin) using Biotin-AGAGRSRHSSYPAGT-OH as substrate after 2 hrs by AlphaScreen assay
[7] = target: T3, Serine/threonine-protein kinase pim-1; assay: Inhibition of PIM1 (unknown origin) using Biotin-AGAGRSRHSSYPAGT-OH as substrate after 2 hrs by AlphaScreen assay
EOL1 = assay: Antitumor activity against human EOL-1 cells xenografted in po dosed mouse administered daily; type: functional, organism-based
[8] = target: T1, Serine/threonine-protein kinase pim-3; assay: Inhibition of PIM3 (unknown origin) using NH2-AGAGRSRHSSYPAGT-OH as substrate by Kinase-Glo assay
[9] = target: T2, Serine/threonine-protein kinase pim-2; assay: Inhibition of PIM2 (unknown origin) using NH2-AGAGRSRHSSYPAGT-OH as substrate by Kinase-Glo assay

T3 sequence (P11309 whole entry): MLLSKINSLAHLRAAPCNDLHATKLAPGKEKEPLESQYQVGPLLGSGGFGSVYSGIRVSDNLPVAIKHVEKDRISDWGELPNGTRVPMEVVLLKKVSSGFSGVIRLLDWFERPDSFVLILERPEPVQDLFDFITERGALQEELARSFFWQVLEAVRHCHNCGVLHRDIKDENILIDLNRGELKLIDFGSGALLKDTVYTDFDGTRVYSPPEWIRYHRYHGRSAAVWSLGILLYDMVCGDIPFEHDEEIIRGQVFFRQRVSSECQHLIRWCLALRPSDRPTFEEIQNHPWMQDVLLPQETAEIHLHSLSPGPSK
T2 sequence (Q9P1W9 whole entry): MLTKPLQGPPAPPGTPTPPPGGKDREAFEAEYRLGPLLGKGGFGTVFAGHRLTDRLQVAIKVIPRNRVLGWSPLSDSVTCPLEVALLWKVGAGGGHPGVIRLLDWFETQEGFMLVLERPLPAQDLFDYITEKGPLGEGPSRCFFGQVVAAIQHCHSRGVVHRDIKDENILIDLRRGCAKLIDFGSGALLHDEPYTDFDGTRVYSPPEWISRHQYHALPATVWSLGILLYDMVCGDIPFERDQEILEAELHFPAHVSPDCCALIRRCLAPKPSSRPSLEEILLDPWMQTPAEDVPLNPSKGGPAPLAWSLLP

Work on `Nc1nccnc1C(=O)Nc1cnccc1N1CCC[C@H](N)C1` yielded a Ki [1] of 20 nM and a Ki [2] of 70 nM.
Molecule `Nc1ccc(-c2ccncc2)nc1C(=O)Nc1cnccc1N1CCC[C@H](N)C1` has a Ki [1] of 5 nM, a Ki [2] of 6 nM and a Ki [3] of under 1 nM.
`Nc1nccnc1C(=O)Nc1ccccc1N1CCCCC1` gave a Ki [1] of 1500 nM, a Ki [2] of 7000 nM and a Ki [4] of 460 nM.
`Nc1nccc(-c2ccc(N)c(C(=O)Nc3cnccc3N3CCC[C@H](N)C3)n2)n1` was tested, and the Ki [1] was 3 nM, the Ki [2] was 16 nM and the Ki [4] was 1 nM.
With `Nc1ccc(-c2c(F)cccc2F)nc1C(=O)Nc1cnccc1N1CC[C@@H](O)[C@H](N)C1` the Ki [1] was 0.007 nM, the Ki [2] was 0.006 nM and the Ki [4] was 0.002 nM.
In the case of `Nc1cccnc1C(=O)Nc1ccccc1N1CCCCC1`, the Ki [1] is reported as 12000 nM, the Ki [2] is reported as over 12500 nM and the Ki [4] is reported as 3300 nM.
`Nc1nccnc1C(=O)Nc1cnccc1N1CCCCC1` gave a Ki [1] of 90 nM, a Ki [2] of 1600 nM and a Ki [4] of 30 nM.
Work on `Nc1ccc(Oc2ccccc2)nc1C(=O)Nc1cnccc1N1CCC[C@H](N)C1` yielded a Ki [1] of 15 nM, a Ki [2] of 122 nM and a Ki [4] of 4 nM.
With `Nc1ccc(-c2c(F)cccc2F)nc1C(=O)Nc1cnccc1N1CCC[C@H](N)C1` the Ki [5] was 0.004 nM, the Ki [6] was 0.006 nM and the Ki [7] was 0.002 nM.
For `O=C(Nc1ccccc1N1CCCCC1)c1cscn1`, the Ki [1] was over 12500 nM, the Ki [2] was over 12500 nM and the Ki [4] was 1800 nM.
In the case of `NCC1CCCN(c2ccncc2NC(=O)c2nccnc2N)C1` (racemic), the Ki [1] is reported as 50 nM, the Ki [2] is reported as 700 nM and the Ki [4] is reported as 11 nM.
Work on `CC(=O)Nc1nc(C(=O)Nc2cnccc2N2CCCCC2)cs1` yielded a Ki [1] of 220 nM, a Ki [2] of over 12500 nM and a Ki [4] of 61 nM.
`C[C@H]1CN(c2ccncc2NC(=O)c2ccc(F)c(-c3c(F)cccc3F)n2)C[C@@H](N)[C@@H]1O` was tested, and the Activity (EOL1) was “Dose-dependent effect”.
`Nc1ccc(-c2ccccc2C(F)(F)F)nc1C(=O)Nc1cnccc1N1CCC[C@H](N)C1` was tested, and the Ki [1] was 3 nM, the Ki [2] was 7 nM and the Ki [4] was 3 nM.
`CC(=O)Nc1nc(C(=O)Nc2ccncc2N2CCCCC2)cs1` gave a Ki [1] of 140 nM, a Ki [2] of 6300 nM and a Ki [4] of 59 nM.
For `CC(=O)Nc1nc(C(=O)Nc2ccccc2N2CCCCC2)cs1`, the Ki [1] was 230 nM and the Ki [2] was over 12500 nM.
Work on `Nc1cccnc1C(=O)Nc1cnccc1N1CCC[C@H](N)C1` yielded a Ki [1] of 20 nM, a Ki [2] of 110 nM and a Ki [4] of 18 nM.
In the case of `O=C(Nc1ccccc1N1CCCCC1)c1ncccc1O`, the Ki [1] is reported as over 12500 nM, the Ki [2] is reported as over 12500 nM and the Ki [4] is reported as 12300 nM.
In the case of `CC(=O)Nc1nc(C(=O)Nc2cncnc2N2CCCCC2)cs1`, the Ki [1] is reported as over 12500 nM, the Ki [2] is reported as over 12500 nM and the Ki [4] is reported as over 12500 nM.
Molecule `COc1ccccc1-c1ccc(N)c(C(=O)Nc2cnccc2N2CCC[C@H](N)C2)n1` has a Ki [2] of 8 nM, a Ki [3] of under 1 nM and a Ki [8] of under 1 nM.
Work on `Nc1cccc(C(=O)Nc2ccccc2N2CCCCC2)n1` yielded a Ki [1] of 11000 nM, a Ki [2] of over 12500 nM and a Ki [4] of 2300 nM.
For `Nc1ccc(-c2cccnc2)nc1C(=O)Nc1cnccc1N1CCC[C@H](N)C1`, the Ki [1] was 4 nM, the Ki [2] was 12 nM and the Ki [3] was under 1 nM.
`Nc1nccnc1C(=O)Nc1cnccc1N1CCNCC1` showed a Ki [1] of 1000 nM, a Ki [2] of over 12500 nM and a Ki [4] of 810 nM.
With `Nc1ccc(-c2ccccn2)nc1C(=O)Nc1cnccc1N1CCC[C@H](N)C1` the Ki [1] was 3 nM, the Ki [2] was 6 nM and the Ki [3] was under 1 nM.
`O=C(Nc1ccccc1N1CCCCC1)c1ncc[nH]1` was tested, and the Ki [1] was over 12500 nM, the Ki [2] was over 12500 nM and the Ki [4] was over 12500 nM.
`CC(=O)Nc1nc(C(=O)Nc2cnc(N)cc2N2CCCCC2)cs1` gave a Ki [1] of 1700 nM, a Ki [2] of over 12500 nM and a Ki [4] of 1000 nM.
With `NCC(=O)N1CCN(c2ccncc2NC(=O)c2nccnc2N)CC1` the Ki [1] was 490 nM, the Ki [2] was 2000 nM and the Ki [4] was 122 nM.
`CC(=O)Nc1nc(C(=O)Nc2cnc(N)nc2N2CCCCC2)cs1` was tested, and the Ki [1] was over 12500 nM, the Ki [2] was over 12500 nM and the Ki [4] was over 12500 nM.
Molecule `Nc1ccc(-c2ccccc2Cl)nc1C(=O)Nc1cnccc1N1CCC[C@H](N)C1` has a Ki [9] of under 1 nM, a Ki [3] of under 1 nM and a Ki [8] of under 1 nM.
`NCCC(=O)N1CCN(c2ccncc2NC(=O)c2nccnc2N)CC1` was tested, and the Ki [1] was 180 nM, the Ki [2] was 680 nM and the Ki [4] was 56 nM.
`CN1CCC(CNc2ccc3ncc(-c4cccc(OC(F)(F)F)c4)n3n2)CC1` [SGI-1776] was tested, and the Ki [1] was 24 nM.
